Results: patent US20230233569A1 (Revolution Medicines, Inc., priority 2020, published 2023)
Where “and” joins values, the source holds several entries; their conditions need not be identical. Equal values may be shown once. Read-outs that look alike come from different tables or passages of the source.

How the values were obtained:
[1] = system: NCI-H358 (K-Ras G12C); assay: CellTiter-Glo cell viability assay, 5-day treatment; assay type: cell-based; details: Homo sapiens
Description: Protocol: CellTiter-Glo® Cell Viability Assay
Note—The following protocol describes a procedure for monitoring cell viability of K-Ras mutant cancer cell lines in response to a compound of the invention. Other RAS isoforms may be employed, though the number of cells to be seeded will vary based on cell line used.
(§1) Test compounds (132.5 nL) were directly dispensed into the assay plates containing cells. […] On day 5, assay plates and their contents were equilibrated to room temperature for approximately 30 minutes. […] Luminescence was measured using the PerkinElmer Enspire. Data were normalized by the following: (Sample signal/Avg. DMSO)*100. The data were fit using a four-parameter logistic fit.
as §1, with “nl)” for “nL)”

[2] = target: KRAS G12C (Homo sapiens, UniProt P01116+P62937, G12C); assay: Disruption of BRAF RBD interaction with Ras (FRET / MOA assay, with Cyclophilin A); assay type: biochemical
KRAS G12C, sequence (P01116 1-169 isoform P01116-2 G12C): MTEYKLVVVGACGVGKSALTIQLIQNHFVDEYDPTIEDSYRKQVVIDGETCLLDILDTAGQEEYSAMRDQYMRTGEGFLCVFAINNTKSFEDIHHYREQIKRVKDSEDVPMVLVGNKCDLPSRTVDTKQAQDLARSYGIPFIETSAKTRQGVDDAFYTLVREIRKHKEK
KRAS G12C, sequence (P62937 whole entry): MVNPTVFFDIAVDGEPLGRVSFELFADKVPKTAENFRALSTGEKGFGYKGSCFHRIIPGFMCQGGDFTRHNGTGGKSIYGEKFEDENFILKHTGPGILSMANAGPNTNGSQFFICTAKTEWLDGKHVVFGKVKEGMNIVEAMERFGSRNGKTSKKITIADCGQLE
Source text: (§2) This protocol may also be executed substituting other Ras proteins or nucleotides.
(§3) The purpose of this biochemical assay was to measure the ability of test compounds to facilitate ternary complex formation between a nucleotide-loaded K-Ras isoform and Cyclophilin A; the resulting ternary complex disrupts binding to a BRAF^RBD construct, inhibiting K-Ras signaling through a RAF effector. Data is reported as IC50 values.
(§4) Compound was present in plate wells as a 10-point 3-fold dilution series starting at a final concentration of 30 μM. After incubation at 25° C. for 3 hours, a mixture of Anti-His Eu-W1024 and anti-GST allophycocyanin was then added to assay sample wells at final concentrations of 10 nM and 50 nM, respectively, and the reaction incubated for an additional 1.5 hours. […] Compounds that facilitate disruption of a K-Ras:RAF complex were identified as those eliciting a decrease in the TR-FRET ratio relative to DMSO control wells.
as §3, with “BRAF^RBDD” for “BRAF^RBD”

[3] = target: KRAS WT (Homo sapiens, UniProt P01116+P62937); assay: as above; assay type: biochemical
KRAS WT, sequence (P01116 1-169 isoform P01116-2 limits assumed): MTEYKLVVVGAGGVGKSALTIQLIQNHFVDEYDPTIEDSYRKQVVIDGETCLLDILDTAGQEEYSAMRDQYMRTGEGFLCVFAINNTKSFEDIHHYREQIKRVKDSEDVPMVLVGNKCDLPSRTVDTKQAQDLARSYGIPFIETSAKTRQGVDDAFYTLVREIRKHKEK
KRAS WT, sequence (P62937 whole entry): as the sequence (P62937 whole entry) above
Source text: as §2, §3, §4
as §3, with “BRAF^RBDD” for “BRAF^RBD”

[4] = target: KRAS G13C (Homo sapiens, UniProt P01116+P62937, G13C); assay: as above; assay type: biochemical
KRAS G13C, sequence (P01116 1-169 isoform P01116-2 G13C): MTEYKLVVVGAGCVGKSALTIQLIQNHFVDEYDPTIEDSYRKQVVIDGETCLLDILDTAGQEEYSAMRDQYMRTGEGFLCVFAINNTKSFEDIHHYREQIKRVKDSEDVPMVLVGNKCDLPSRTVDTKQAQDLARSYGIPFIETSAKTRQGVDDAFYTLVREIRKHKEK
KRAS G13C, sequence (P62937 whole entry): as the sequence (P62937 whole entry) above
Source text: as §2, §3, §4
as §3, with “BRAF^RBDD” for “BRAF^RBD”

[5] = target: KRAS G13D (Homo sapiens, UniProt P01116+P62937, G13D); assay: as above; assay type: biochemical
KRAS G13D, sequence (P01116 1-169 isoform P01116-2 G13D limits assumed): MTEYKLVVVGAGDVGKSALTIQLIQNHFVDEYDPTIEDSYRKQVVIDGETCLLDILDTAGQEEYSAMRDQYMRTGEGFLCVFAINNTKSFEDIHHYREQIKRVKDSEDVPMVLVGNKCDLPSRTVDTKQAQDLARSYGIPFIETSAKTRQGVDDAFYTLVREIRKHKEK
KRAS G13D, sequence (P62937 whole entry): as the sequence (P62937 whole entry) above
Source text: as §2, §3, §4
as §3, with “BRAF^RBDD” for “BRAF^RBD”

[6] = target: KRAS G12D (Homo sapiens, UniProt P01116+P62937, G12D); assay: as above; assay type: biochemical
KRAS G12D, sequence (P01116 1-169 isoform P01116-2 G12D limits assumed): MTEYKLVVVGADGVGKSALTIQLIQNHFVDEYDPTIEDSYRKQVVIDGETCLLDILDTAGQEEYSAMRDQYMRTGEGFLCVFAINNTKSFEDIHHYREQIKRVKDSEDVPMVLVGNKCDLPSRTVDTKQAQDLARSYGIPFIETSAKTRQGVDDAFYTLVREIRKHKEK
KRAS G12D, sequence (P62937 whole entry): as the sequence (P62937 whole entry) above
Source text: as §2, §3, §4
as §3, with “BRAF^RBDD” for “BRAF^RBD”

[7] = target: KRAS G12S (Homo sapiens, UniProt P01116+P62937, G12S); assay: as above; assay type: biochemical
KRAS G12S, sequence (P01116 1-169 isoform P01116-2 G12S limits assumed): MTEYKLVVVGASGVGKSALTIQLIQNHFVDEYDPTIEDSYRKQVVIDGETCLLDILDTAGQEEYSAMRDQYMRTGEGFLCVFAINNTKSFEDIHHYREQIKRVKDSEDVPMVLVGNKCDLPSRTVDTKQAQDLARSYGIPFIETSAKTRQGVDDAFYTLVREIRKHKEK
KRAS G12S, sequence (P62937 whole entry): as the sequence (P62937 whole entry) above
Source text: as §2, §3, §4
as §3, with “BRAF^RBDD” for “BRAF^RBD”

[8] = target: KRAS G12V (Homo sapiens, UniProt P01116+P62937, G12V); assay: as above; assay type: biochemical
KRAS G12V, sequence (P01116 1-169 isoform P01116-2 G12V limits assumed): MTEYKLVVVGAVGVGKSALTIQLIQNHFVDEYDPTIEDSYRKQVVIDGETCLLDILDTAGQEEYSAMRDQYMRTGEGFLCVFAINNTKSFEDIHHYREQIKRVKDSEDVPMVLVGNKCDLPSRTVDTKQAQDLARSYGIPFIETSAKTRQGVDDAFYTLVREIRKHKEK
KRAS G12V, sequence (P62937 whole entry): as the sequence (P62937 whole entry) above
Source text: as §2, §3, §4
as §3, with “BRAF^RBDD” for “BRAF^RBD”

[9] = target: NRAS G12C (Homo sapiens, UniProt P01111+P62937, G12C); assay: as above; assay type: biochemical
NRAS G12C, sequence (P01111 whole entry G12C): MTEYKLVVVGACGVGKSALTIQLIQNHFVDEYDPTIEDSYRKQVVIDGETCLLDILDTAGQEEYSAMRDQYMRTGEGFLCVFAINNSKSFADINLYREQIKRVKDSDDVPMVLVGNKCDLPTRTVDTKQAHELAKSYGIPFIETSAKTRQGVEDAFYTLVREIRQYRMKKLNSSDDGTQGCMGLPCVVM
NRAS G12C, sequence (P62937 whole entry): as the sequence (P62937 whole entry) above
Source text: as §2, §3, §4
as §3, with “BRAF^RBDD” for “BRAF^RBD”

[10] = NCI-H358, H358, K-Ras G12C, read-out: Additional H358 Cell Viability assay data (K-Ras G12C, IC50)
[11] = KRAS G12C, read-out: KRAS G12C FRET data IC50
[12] = KRAS WT, read-out: KRAS WT FRET data IC50
[13] = KRAS G13C, read-out: KRAS G13C FRET data IC50
[14] = KRAS G13D, read-out: KRAS G13D FRET data IC50
[15] = read-out: KRAS G12D FRET data, IC50
[16] = read-out: KRAS G12S FRET data, IC50
[17] = KRAS G12V, read-out: KRAS G12V FRET data IC50
[18] = NRAS G12C, read-out: NRAS G12C FRET data IC50
[19] = NCI-H358, 120 h, 5-day treatment, read-out: H358 Cell Viability assay data (K-Ras G12C, IC50)
[20] = read-out: KRAS G12C FRET data, IC50
[21] = read-out: KRAS G13C FRET data, IC50

Row | SMILES | IC50 [3, 12] | IC50 [5, 14] | IC50 [6, 15] [µM] | IC50 [7, 16] | IC50 [8, 17] | IC50 [9, 18] | IC50 [1, 19] [µM] | IC50 [2, 20] | IC50 [4, 21] | IC50 [1, 10] [µM] | IC50 [2, 11] [µM] | IC50 [4, 13] [µM] | IC50 ([2]; KRAS G12C FRET data, IC50) [µM] | IC50 ([3]; KRAS WT FRET data IC50, KRAS WT) [µM] | IC50 ([4]; KRAS G13C FRET data, IC50) [µM] | IC50 ([5]; KRAS G13D FRET data IC50, KRAS G13D) [µM] | IC50 ([6]; KRAS G12D FRET data, IC50) [µM] | IC50 ([7]; KRAS G12S FRET data, IC50) [µM] | IC50 ([8]; KRAS G12V FRET data IC50, KRAS G12V) [µM] | IC50 ([9]; NRAS G12C FRET data IC50, NRAS G12C) [µM]
1 | C=CC(=O)N1C[C@@H](C(=O)N(C)[C@H](C(=O)N[C@H]2Cc3cccc(c3)-c3ccc4c(c3)c(c(-c3cccnc3[C@H](C)OC)n4CC)CC(C)(C)COC(=O)[C@@H]3CCCN(N3)C2=O)C(C)C)[C@@H](C(F)(F)F)C1 [Example A401] | 1 to 10 µM | 1 to 10 µM | > 10 | 1 to 10 µM | 1 to 10 µM | 1 to 10 µM | – | – | – | 0.1 to 1 | 1 to 10 | 0.1 to 1 | – | – | – | – | – | – | – | –
2 | CCn1c(-c2cccnc2[C@H](C)OC)c2c3cc(ccc31)-c1cc(O)cc(c1)C[C@H](NC(=O)C1CCCC1C(F)F)C(=O)N1CCC[C@H](N1)C(=O)OCC(C)(C)C2 (stereo partly drawn) [Example A254] | 0.1 to 1 µM | 0.1 to 1 µM | 1 to 10 | 0.1 to 1 µM | 0.1 to 1 µM | 0.1 to 1 µM | 1 to 10 | 0.1 to 1 µM | 0.1 to 1 µM | – | – | – | – | – | – | – | – | – | – | –
3 | CCn1c(-c2cnccc2COC)c2c3cc(ccc31)-c1cc(O)cc(c1)C[C@H](NC(=O)[C@H](C(C)C)N(C)C(=O)OC1CCOC1)C(=O)N1CCC[C@H](N1)C(=O)OCC(C)(C)C2 (stereo partly drawn) [Example A50, oxolan-3-yl-N-[(1S)-1-{[(8S,14S)-22-ethyl-4-hydroxy-21-[4-(methoxymethyl)pyridin-3-yl]-18,18-dimethyl-9,15-dioxo-16-oxa-10,22,28-triazapentacyclo[18.5.2.1^2,6.1^10,14.0^23,27]nonacosa-1(26),2,4,6(29),20,23(27),24-heptaen-8-yl]carbamoyl}-2-methylpropyl]-N-methylcarbamate] | – | – | – | – | – | – | 1 to 10 | – | – | – | – | – | 0.1 to 1 | 0.1 to 1 | 1 to 10 | 1 to 10 | 1 to 10 | 1 to 10 | 1 to 10 | 1 to 10

Second part, led by results:

Row | IC50 [3, 12] | IC50 [5, 14] | IC50 [6, 15] [µM] | IC50 [7, 16] | IC50 [8, 17] | IC50 [9, 18] | IC50 [1, 19] [µM] | IC50 [2, 20] | IC50 [4, 21] | SMILES | IC50 [1, 10] [µM] | IC50 [2, 11] [µM] | IC50 [4, 13] [µM] | IC50 ([2]; KRAS G12C FRET data, IC50) [µM] | IC50 ([3]; KRAS WT FRET data IC50, KRAS WT) [µM] | IC50 ([4]; KRAS G13C FRET data, IC50) [µM] | IC50 ([5]; KRAS G13D FRET data IC50, KRAS G13D) [µM] | IC50 ([6]; KRAS G12D FRET data, IC50) [µM] | IC50 ([7]; KRAS G12S FRET data, IC50) [µM] | IC50 ([8]; KRAS G12V FRET data IC50, KRAS G12V) [µM] | IC50 ([9]; NRAS G12C FRET data IC50, NRAS G12C) [µM]
4 | 1 to 10 µM and > 10 µM | 1 to 10 µM and > 10 µM | > 10 | 1 to 10 µM and > 10 µM | 1 to 10 µM and > 10 µM | 1 to 10 µM and > 10 µM | 0.1 to 1 | 1 to 10 µM and > 10 µM | 1 to 10 µM and > 10 µM | CCn1c(-c2cccnc2[C@H](C)OC)c2c3cc(ccc31)-c1csc(n1)C[C@H](NC(=O)[C@H](C(C)C)N(C)C(=O)[C@H]1CCN(C(=O)OC)C1)C(=O)N1CCC[C@H](N1)C(=O)OCC(C)(C)C2 [Example A116] | – | – | – | – | – | – | – | – | – | – | –
5 | 1 to 10 µM | > 10 µM | > 10 | 1 to 10 µM | 1 to 10 µM | 1 to 10 µM | 1 to 10 | 1 to 10 µM | > 10 µM | CCn1c(-c2cccnc2[C@H](C)OC)c2c3cc(ccc31)-c1cccc(c1)C[C@H](NC(=O)[C@H](C(C)C)N(C)C(=O)[C@H]1CCN(C(C)=O)C1)C(=O)N1CCC[C@H](N1)C(=O)OCC(C)(C)C2 [Example A60] | – | – | – | – | – | – | – | – | – | – | –
6 | > 10 µM | > 10 µM | > 10 | > 10 µM | > 10 µM | > 10 µM | – | – | – | C=CC(=O)N1CC[C@H](C(=O)N(C)[C@H](C(=O)N[C@H]2C[C@H]3CN(CCCO3)c3ccc4c(c3)c(c(-c3cccnc3[C@H](C)OC)n4CC)CC(C)(C)COC(=O)[C@@H]3CCCN(N3)C2=O)C(C)C)C1 (racemic) [Example A405] | > 1 | 1 to 10 | > 10 | – | – | – | – | – | – | – | –
